Converted amounts (≈) assume the structure as drawn. Like-named read-outs stand apart in the source and are kept apart here. Peptide text beside a SMILES is read from it.
What was measured:
aureolysin [1] = biological target: aureolysin (Staphylococcus aureus, UniProt P81177); experiment: Proteolytic stability against aureolysin; assay type: in vitro ADME; conditions: bacterial protease aureolysin; percentage of intact peptide at time points by LC–MS
Experimental: A major limitation of AMPs as potential drug candidates is due to their inherent proteolytic instability, and endogenous AMPs are readily degraded by both host- and pathogen-proteases. […] Therefore, the stability of CD4-PP was tested against this enzyme. The percentage of the intact peptide at different time points was monitored using LC–MS, and compared to LL-37 as a control. […] In contrast, CD4-PP is stable for up to 6 h (Supplementary Fig. S2).
[picture] Supplementary Figure S2.

[2] = test system: Pseudomonas aeruginosa (ATCC 27853); assay type: cell-based
Experimental: (§1) The following uropathogenic bacterial species were used for the in vitro experiments, E. coli CFT073; E. coli ESBL-producing (CCUG 55197); K. pneumoniae (ATCC 25955); K. pneumoniae multidrug resistant (MDR) (CCUG 58547); and P. aeruginosa (ATCC 27853). Clinical isolates were obtained from the Department of Clinical Microbiology, Karolinska University Hospital, Solna, Sweden. Bacteria were cultured aerobically overnight on blood agar plates at 37 °C. For each bacterial species, 20 clinical isolates were included. For further assessment of biofilm formation, the E. coli isolate #12 from a child with pyelonephritis was chosen. The isolate expresses both curli and cellulose, as well as type 1 fimbriae and produces biofilm as measured on microtiter plates One-step knockout of bcsA and csgBA were carried out using the methods as described previously. The following mutants were used: WE1 bcsA::Cm (deficient in cellulose production), WE11 csgBA::Cm (deficient in curli production), and WE16 csgBA bscA::Cm (deficient in both cellulose and curli production). E. coli CFT073 was used for all experiments where nothing else is stated.
(§2) MIC of CD4-PP was evaluated against the type strains and the 20 clinical bacterial isolates using a two-step micro-dilution assay adapted for testing AMPs. The concentrations of CD4-PP were prepared double strength with two-fold serial dilutions ranging from 50 to 0.78 µM in 50 µL of 10 mM Tris buffer in a U-bottom 96-well plate (Corning Incorporated).
(§3) Bacteria were grown to mid-log phase before diluting to a final concentration of 1 × 10^6 CFU/mL in 10 mM Tris buffer using a Densichek Plus (BioMérieux). To each well, 50 µL suspension was added and incubated at 37 °C for 1 h and the final concentrations of peptide tested were from 25 to 0.39 µM. […] The MIC was read spectrophotometrically at 595 nm. MIC was defined as the lowest concentration of CD4-PP which inhibits bacterial growth. The effects of salt ions on the antibacterial activities of CD4-PP were assessed against E. coli (ATCC 25922) and P. aeruginosa (ATCC 27853) type strains. The following salts were used: sodium chloride (NaCl), ammonium chloride (NH4Cl), calcium chloride (CaCl2), magnesium chloride (MgCl2) and ferric chloride (FeCl3). All salts were purchased from Merck.

E. coli CFT073 = assay type: cell-based, Escherichia coli
Experimental: as §1, §2
as §3, with “The following salts were used: sodium chloride (NaCl), ammonium chloride (NH4Cl), calcium chloride (CaCl2), magnesium chloride (MgCl2) and ferric chloride (FeCl3). All salts were purchased from Merck.” left out

[3] = test system: MDR K. pneumoniae (CCUG 58547); assay type: cell-based, Klebsiella pneumoniae; conditions: 10 mM Tris buffer, bacteria 1 × 10^6 CFU/mL, 1 h 37 °C, then TSB 16–18 h, read at 595 nm
Experimental: as §1, with “The following mutants were used: WE1 bcsA::Cm (deficient in cellulose production), WE11 csgBA::Cm (deficient in curli production), and WE16 csgBA bscA::Cm (deficient in both cellulose and curli production). E. coli CFT073 was used for all experiments where nothing else is stated.” left out
MIC of CD4-PP was evaluated against the type strains and the 20 clinical bacterial isolates using a two-step micro-dilution assay adapted for testing AMPs. […]
Bacteria were grown to mid-log phase before diluting to a final concentration of 1 × 10^6 CFU/mL in 10 mM Tris buffer using a Densichek Plus (BioMérieux). […] The MIC was read spectrophotometrically at 595 nm. […] The effects of salt ions on the antibacterial activities of CD4-PP were assessed against E. coli (ATCC 25922) and P. aeruginosa (ATCC 27853) type strains. […]

[4] = test system: Klebsiella pneumoniae (ATCC 25955); assay type: cell-based; conditions: 10 mM Tris buffer, bacteria 1 × 10^6 CFU/mL, 1 h 37 °C, then TSB 16–18 h, read at 595 nm
Experimental: as §1, §2, §3

[5] = test system: E. coli ESBL strain (CCUG 55971); assay type: cell-based, Escherichia coli; conditions: 10 mM Tris buffer, bacteria 1 × 10^6 CFU/mL, 1 h 37 °C, then TSB 16–18 h, read at 595 nm
Experimental: as §1, §2
as §3, with “The following salts were used: sodium chloride (NaCl), ammonium chloride (NH4Cl), calcium chloride (CaCl2), magnesium chloride (MgCl2) and ferric chloride (FeCl3). All salts were purchased from Merck.” left out

aureolysin [6] = experiment: bacterial protease aureolysin; conditions: up to 6 h
[7] = stated in SEM method, bacteria at 10^8 CFU/mL in 10 mM Tris buffer

Chain of aureolysin (Staphylococcus aureus, UniProt P81177) (P81177 209-509): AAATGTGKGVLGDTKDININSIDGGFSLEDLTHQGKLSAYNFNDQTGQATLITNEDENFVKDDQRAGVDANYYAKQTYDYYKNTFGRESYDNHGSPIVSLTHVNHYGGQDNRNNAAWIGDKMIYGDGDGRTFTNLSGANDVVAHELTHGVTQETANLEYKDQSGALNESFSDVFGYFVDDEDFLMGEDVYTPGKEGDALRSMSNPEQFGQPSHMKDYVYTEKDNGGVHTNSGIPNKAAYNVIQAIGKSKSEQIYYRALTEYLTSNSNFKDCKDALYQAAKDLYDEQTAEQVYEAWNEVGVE

`CC[C@H](C)[C@H](NC(=O)[C@H](CCCCN)NC(=O)[C@H](CCC(=O)O)NC(=O)[C@H](CCCCN)NC(=O)[C@H](CO)NC(=O)[C@H](CCCCN)NC(=O)[C@H](CCCNC(=N)N)NC(=O)[C@H](Cc1ccccc1)NC(=O)[C@H](Cc1ccccc1)NC(=O)[C@H](CC(=O)O)NC(=O)CNC(=O)[C@H](CC(C)C)NC(=O)[C@@H](N)CC(C)C)C(=O)NCC(=O)N[C@@H](CCCCN)C(=O)N[C@@H](CCC(=O)O)C(=O)N[C@@H](Cc1ccccc1)C(=O)N[C@@H](CCCCN)C(=O)N[C@@H](CCCNC(=N)N)C(=O)N[C@H](C(=O)N[C@H](C(=O)N[C@@H](CCC(N)=O)C(=O)N[C@@H](CCCNC(=N)N)C(=O)N[C@H](C(=O)N[C@@H](CCCCN)C(=O)N[C@@H](CC(=O)O)C(=O)N[C@@H](Cc1ccccc1)C(=O)N[C@@H](CC(C)C)C(=O)N[C@@H](CCCNC(=N)N)C(=O)N[C@@H](CC(N)=O)C(=O)N[C@@H](CC(C)C)C(=O)N[C@H](C(=O)N1CCC[C@H]1C(=O)N[C@@H](CCCNC(=N)N)C(=O)N[C@H](C(=O)N[C@@H](CCC(=O)O)C(=O)N[C@@H](CO)C(=O)O)[C@@H](C)O)C(C)C)[C@@H](C)CC)C(C)C)[C@@H](C)CC` [LL-37] was tested, and the “degradation by aureolysin (in words)” value (aureolysin [1]) was “rapidly degraded within minutes”, the MIC ([2]; CaCl2 2.5 mM) was >10 µM and the MIC ([2]; FeCl3 4 µM) was 2.5 µM (≈ 11.2 µg/mL). For the same molecule, the MIC ([2]; MgCl2 1 mM) was 5 µM (≈ 22.5 µg/mL), the MIC ([2]; NH4Cl 6 µM) was 1.25 µM (≈ 5.62 µg/mL) and the MIC ([2]; NaCl 150mM) was 5 µM (≈ 22.5 µg/mL). For the same molecule, the MIC ([2]; salt series: Tris-buffer 10mM, no added salt) was 1.25 µM, the “MIC (reference concentration used for SEM)” value [2, 7] was 15.62 µM and the “MIC (reference concentration used for SEM)” value (E. coli CFT073; [7]) was 15.62 µM.

In the case of `CC[C@H](C)[C@@H]1NC(=O)[C@H](CCCNC(=N)N)NC(=O)[C@H](CCCCN)NC(=O)[C@H](C(C)C)NC(=O)[C@H]([C@@H](C)CC)NC(=O)[C@H](CCCNC(=N)N)NC(=O)[C@H](CCCCN)NC(=O)CNC(=O)CNC(=O)[C@@H]2CCCN2C(=O)[C@H](CS)NC(=O)[C@H](CCCNC(=N)N)NC(=O)[C@H](CC(C)C)NC(=O)[C@H](Cc2ccccc2)NC(=O)[C@H](C)NC(=O)[C@H](CCCCN)NC(=O)[C@H]([C@@H](C)CC)NC(=O)[C@H](CCCNC(=N)N)NC(=O)[C@H](CCCCN)NC(=O)[C@H](C(C)C)NC(=O)[C@H]([C@@H](C)CC)NC(=O)[C@H](CCCNC(=N)N)NC(=O)[C@H](CCCCN)NC(=O)CNC(=O)CNC(=O)[C@@H]2CCCN2C(=O)CNC(=O)[C@H](CCCNC(=N)N)NC(=O)[C@H](CC(C)C)NC(=O)[C@H](Cc2ccccc2)NC(=O)[C@H](C)NC(=O)[C@H](CCCCN)NC1=O` [CD4-PP] (cyclo(AFLRCPGGKRIVKRIKAFLRGPGGKRIVKRIK)), the “time for which the peptide is stable with aureolysin” value (aureolysin [1]) is reported as “up to 6 h”, the MIC [3] is reported as 1.56 µM (≈ 5.62 µg/mL) and the MIC [4] is reported as 1.56 µM (≈ 5.62 µg/mL). For the same molecule, the MIC [5] was 0.78 µM (≈ 2.81 µg/mL) and the MIC (E. coli CFT073; CFT073, 1 h) was 0.78 µM (≈ 2.81 µg/mL).

With LLGDFFRKSKEKIGKEFKRIVQRIKDFLRNLVPRTES the cleaved bond (aureolysin [6]) was “L31-V32”.

For CPGGKRIVKRIKAFLRGPGGKRIVKRIKAFLR, the not cleaved (aureolysin [6]) was “stable for up to 6 h”.

From publication PMC9276586 (Cellular and Molecular Life Sciences: CMLS, 2022)
